Data published in US20230414617A1, “PHARMACEUTICAL COMPOSITION COMPRISING ACID-BASE NEUTRALIZATION COMBINATION AND APPLICATION THEREOF” (CHENGDU KUACHANGAOPU MEDICAL TECHNOLOGY CO., LTD., priority 2020, published 2023).
Counter-ions that a name gives are not always drawn.

Legend:
[1] = pH of the study drug aqueous solution; assay type: physicochemical; conditions: aqueous solution
breast cancer 4T1 cells [2] = assay: Tumor inhibition, breast cancer 4T1 transplantation tumor (Example 5); assay type: in vivo, BALB/c mouse; conditions: intratumoral; for Tumor weight (x ± s): once every 3 days x3, 5th day after end; for Tumor inhibition rate: vs negative control
Experimental: (§1) In the following examples of the present invention, the co-administration pharmaceutical efficacies of drug A and drug B combination administration was determined by ratio q of actual pharmaceutical efficacy/expected pharmaceutical efficacy according to Zhengjun JIN method, as follows.
(§2) In one experiment, the test animal was a BALB/c mouse, the modeling cells were breast cancer 4T1 cells, and the transplantation tumor was modeled at 1×10^6 cells/mouse under the skin of the animal's right axilla. […] Each group was administered by intratumoral injection once every 3 days for a total of 3 times, each time at an injection dose of 150 pl//mouse. On the 5th day after the administration was ended, the animals were euthanized, and the tumor weight was measured after anatomy to the animals. The tumor inhibition rate was calculated from the negative control group.

breast cancer 4T1 cells [3] = assay: Tumor inhibition, breast cancer 4T1 transplantation tumor (Example 3); assay type: in vivo, BALB/c mouse; conditions: intratumoral; for Tumor weight (x ± s): 150 μl/mouse, once every 3 days x3, 5th day after end; for Tumor inhibition rate: vs negative control
Experimental: as §1
as §2, with “an” for “one”, “μl/mouse.” for “pl//mouse.”, “determined” for “measured”

[4] = tested on: mouse liver cancer Hepa1-6 cells; assay: Series B: tumor inhibition, Hepa1-6 transplantation tumor in 8-month-old mice (Example 10); assay type: in vivo; conditions: one intratumoral injection 100 μl/mouse; for r'3d, tumor inhibition rate (tumor volume): day 3; for r'14d, tumor inhibition rate (tumor volume): day 14
Experimental: The animals in series B were modeled in 8-month-old mice as a middle-aged and elderly patient model, which was not consistent with the commonly used young patient model in terms of tumor formation, tumor histomorphology, and body immunocompetence. […] The model animals were randomly divided into 13 groups. Each group was administered once by intratumoral injection according to the drug grouping in Table 11 with an injection volume of 100 μl/mouse.
The actual/expected ratio […] for short-term drug efficacy and the actual/expected ratio q14d for medium-term drug efficacy were calculated based on the drug efficacies (r′3d, […]) at different times (day 3, day 14), respectively.

breast cancer 4T1 cells [5] = assay: Tumor inhibition, breast cancer 4T1 transplantation tumor (Example 8); assay type: in vivo, BALB/c mouse; conditions: intratumoral; for Tumor weight (x ± s): 150 μl/mouse, once every 3 days x3, 5th day after end; for Tumor inhibition rate: vs negative control
Experimental: as §1
as §2, with “an” for “one”, “1×10^5” for “1×10^6”, “axilla. Successfully modeled experimental animals (with an average tumor volume of 336 mm^3) were divided into 1 negative control group (group 0) and 16 drug study groups (groups 1-16).” for “axilla.”, “μl/mouse.” for “pl//mouse.”

breast cancer 4T1 cells [6] = assay: Tumor inhibition, breast cancer 4T1 transplantation tumor (Example 7); assay type: in vivo, BALB/c mouse; conditions: intratumoral; for Tumor weight (x ± s): 150 ul/mouse, once every 3 days x3, 5th day after end; for Tumor inhibition rate: vs negative control
Experimental: as §1
In an experiment, the test animal was a BALB/c mouse, the modeling cells were breast cancer 4T1 cells, and the transplantation tumor was modeled at 1×10^6 cells/mouse under the skin of the animal's right axilla. […] The negative controls and study drugs were administered intraperitoneally (groups 02, 11 and 15) and intratumorally (other study groups), respectively. All groups were dosed once every 3 days, for a total of 3 times, […], with an injection volume of 150 ul/mouse. On the 5th day after the administration was ended, the animals were euthanized, and the tumor weight was measured after anatomy to the animals. The tumor inhibition rate was calculated from the negative control group.

breast cancer 4T1 cells [7] = assay: Tumor inhibition, breast cancer 4T1 transplantation tumor (Example 4); assay type: in vivo, BALB/c mice; conditions: intratumoral; for Tumor weight (x ± s): 150 μl/mouse, once every 3 days x3, 5th day after end; for Tumor inhibition rate: vs negative control
Experimental: as §1
In another experiment, the test animal was BALB/c mice, the modeling cells were breast cancer 4T1 cells, and the transplantation tumor was modeled at 1×10^6 cells/mouse under the skin of the animal's right axilla. Successfully modeled experimental animals (average tumor volume 307 mm^3) were randomly divided into 1 negative control group (group 0) and 13 drug study groups (groups 1-13). […] Each group was administered by intratumoral injection once every 3 days for a total of 3 times, each time at an injection dose of 150 μl/mouse. On the 5th day after the administration was ended, the animals were euthanized, and the tumor weight was measured after anatomy to the animals. The tumor inhibition rate was calculated from the negative control group.

breast cancer 4T1 cells [8] = assay: Tumor inhibition, breast cancer 4T1 transplantation tumor (Example 6); assay type: in vivo, BALB/c mouse; conditions: intratumoral; for Tumor weight (x ± s): 150 μl/mouse, once every 3 days x3, 5th day after end; for Tumor inhibition rate: vs negative control
Experimental: as §1
In an experiment, the test animal was a BALB/c mouse, the modeling cells were breast cancer 4T1 cells, and the transplantation tumor was modeled at 1×10^5 cells/mouse under the skin of the animal's right axilla. Successfully modeled experimental animals (with an average tumor volume of 324 mm^3) were divided into 1 negative control group (group 0) and 9 drug study groups (groups 1-9). […] Each group was administered by intratumoral injection once every 3 days for a total of 3 times, each time at an injection dose of 150 μl/mouse. On the 5th day after the administration was ended, the animals were euthanized, and the tumor weight was measured after anatomy to the animals. The tumor inhibition rate was calculated from the negative control group.

[9] = study drugs of Example 5 (Table 7)
[10] = study drugs of Example 4 (Table 6)
[11] = study drugs of Example 3 (Table 5)
[12] = study drugs of Example 6 (Table 8)

Compound: CC(=O)O [15% acetic acid, acetic acid]
- pH [1, 9]: 2.5
- Tumor weight (x ± s) (breast cancer 4T1 cells [2]): 0.70 ± 0.18 g
- Tumor inhibition rate (breast cancer 4T1 cells [2]): 68%

Compound: [Cl-].[K+] [2% KCl, potassium chloride]
- Tumor weight (x ± s) (breast cancer 4T1 cells [3]): 2.19 ± 0.31 g
- Tumor inhibition rate (breast cancer 4T1 cells [3]): 11%

Compound: dextran40 [2.5% dextran40 aqueous solution]
- r'3d, tumor inhibition rate (tumor volume) [4]: 4.2%
- r'14d, tumor inhibition rate (tumor volume) [4]: 5.3%

Compound: CCN(CC)c1ccc(C(=C2C=CC(=[N+](CC)CC)C=C2)c2cc(O)c(S(=O)(=O)O)cc2S(=O)(=O)O)cc1 [1% patent blue, patent blue]
- Tumor weight (x ± s) (breast cancer 4T1 cells [5]): 1.71 ± 0.25 g
- Tumor inhibition rate (breast cancer 4T1 cells [5]): 24%

Compound: O=c1[nH]cc(F)c(=O)[nH]1 [1% 5-fluorouracil, 5-fluorouracil]
- r'3d, tumor inhibition rate (tumor volume) [4]: 26.8%
- r'14d, tumor inhibition rate (tumor volume) [4]: 3.1%
- Tumor weight (x ± s) (breast cancer 4T1 cells [6]): 1.07 ± 0.26 g
- Tumor inhibition rate (breast cancer 4T1 cells [6]): 51%
- Tumor weight (x ± s) (breast cancer 4T1 cells [5]): 1.10 ± 0.26 g
- Tumor inhibition rate (breast cancer 4T1 cells [5]): 51%

Compound: O=C([O-])[O-].[Na+].[Na+] [7% sodium carbonate, sodium carbonate]
- Tumor weight (x ± s) (breast cancer 4T1 cells [7]): 1.81 ± 0.21 g
- Tumor inhibition rate (breast cancer 4T1 cells [7]): 20%
- pH [1, 10]: 10.8

Compound: C=C[C@H]1C[N@@]2CC[C@H]1C[C@H]2[C@H](O)c1ccnc2ccc(OC)cc12 [3% quinine monohydrochloride, quinine monohydrochloride]
- Tumor weight (x ± s) (breast cancer 4T1 cells [5]; monohydrochloride): 1.71 ± 0.26 g
- Tumor inhibition rate (breast cancer 4T1 cells [5]; monohydrochloride): 24%

Compound: O=C([O-])[O-].[Na+].[Na+] [2.8% sodium carbonate, sodium carbonate]
- Tumor weight (x ± s) (breast cancer 4T1 cells [7]): 2.10 ± 0.27 g
- Tumor inhibition rate (breast cancer 4T1 cells [7]): 7%
- pH [1, 10]: 10.9

Compound: CC(=O)[O-].[Na+] [30% sodium acetate, sodium acetate]
- pH [1, 9]: 9.4
- Tumor weight (x ± s) (breast cancer 4T1 cells [2]): 1.53 ± 0.21 g
- Tumor inhibition rate (breast cancer 4T1 cells [2]): 30%

Compound: CN(C)c1ccc2nc3ccc(=[N+](C)C)cc-3sc2c1 [0.3% methylene blue, methylene blue]
- Tumor weight (x ± s) (breast cancer 4T1 cells [6]): 2.11 ± 0.29 g
- Tumor inhibition rate (breast cancer 4T1 cells [6]): 3%

Compound: CN(C)c1ccc2nc3ccc(=[N+](C)C)cc-3sc2c1 [1% methylene blue, methylene blue]
- r'3d, tumor inhibition rate (tumor volume) [4]: 27.8%
- r'14d, tumor inhibition rate (tumor volume) [4]: 16.9%
- Tumor weight (x ± s) (breast cancer 4T1 cells [6]): 1.72 ± 0.27 g
- Tumor inhibition rate (breast cancer 4T1 cells [6]): 21%
- Tumor weight (x ± s) (breast cancer 4T1 cells [5]): 1.73 ± 0.23 g
- Tumor inhibition rate (breast cancer 4T1 cells [5]): 23%

Compound: CC(=O)O [30% acetic acid, acetic acid]
- pH [1, 9]: 2.5
- Tumor weight (x ± s) (breast cancer 4T1 cells [2]): 0.41 ± 0.11 g
- Tumor inhibition rate (breast cancer 4T1 cells [2]): 81%

Compound: [Na+].[OH-] [1% NaOH, sodium hydroxide]
- pH [1, 11]: 13.4
- Tumor weight (x ± s) (breast cancer 4T1 cells [3]): 1.41 ± 0.23 g
- Tumor inhibition rate (breast cancer 4T1 cells [3]): 42%

Compound: NCC(=O)O [15% glycine, glycine]
- Tumor weight (x ± s) (breast cancer 4T1 cells [6]): 1.81 ± 0.26 g
- Tumor inhibition rate (breast cancer 4T1 cells [6]): 17%
- pH [1, 9]: 6.8
- pH ([1]; study drugs of Example 7 (Table 9)): 6.8
- Tumor weight (x ± s) (breast cancer 4T1 cells [2]): 1.81 ± 0.26 g
- Tumor inhibition rate (breast cancer 4T1 cells [2]): 17%

Compound: Cl [5% hydrochloric acid, hydrochloric acid]
- Tumor weight (x ± s) (breast cancer 4T1 cells [8]): 0.36 ± 0.14 g
- Tumor inhibition rate (breast cancer 4T1 cells [8]): 83%
- pH [1, 12]: 0.1

Compound: O=C([O-])O.[Na+] [4% sodium bicarbonate, sodium bicarbonate]
- pH [1, 11]: 8.2
- pH [1, 9]: 8.2
- Tumor weight (x ± s) (breast cancer 4T1 cells [2]): 1.68 ± 0.27 g
- Tumor inhibition rate (breast cancer 4T1 cells [2]): 23%
- Tumor weight (x ± s) (breast cancer 4T1 cells [3]): 1.87 ± 0.22 g
- Tumor inhibition rate (breast cancer 4T1 cells [3]): 23%

Compound: [Na+].[OH-] [5% NaOH, sodium hydroxide]
- pH [1, 11]: 14.0
- Tumor weight (x ± s) (breast cancer 4T1 cells [3]): 0.28 ± 0.12 g
- Tumor inhibition rate (breast cancer 4T1 cells [3]): 72%

Compound: C=C[C@H]1C[N@@]2CC[C@H]1C[C@H]2[C@H](O)c1ccnc2ccc(OC)cc12 [5% quinine dihydrochloride, quinine dihydrochloride]
- Tumor weight (x ± s) (breast cancer 4T1 cells [5]; dihydrochloride): 1.46 ± 0.21 g
- Tumor inhibition rate (breast cancer 4T1 cells [5]; dihydrochloride): 35%

Compound: CC(=O)O [3% acetic acid, acetic acid]
- pH [1, 9]: 2.6
- Tumor weight (x ± s) (breast cancer 4T1 cells [2]): 1.85 ± 0.26 g
- Tumor inhibition rate (breast cancer 4T1 cells [2]): 15%

Compound: O=C([O-])O.[Na+] [5% sodium bicarbonate, sodium bicarbonate]
- Tumor weight (x ± s) (breast cancer 4T1 cells [8]): 1.57 ± 0.20 g
- Tumor inhibition rate (breast cancer 4T1 cells [8]): 25%
- Tumor weight (x ± s) (breast cancer 4T1 cells [7]): 1.79 ± 0.24 g
- Tumor inhibition rate (breast cancer 4T1 cells [7]): 21%
- pH [1, 10]: 8.2
- pH [1, 12]: 8.2

Compound: Cl [3.5% hydrochloric acid, hydrochloric acid]
- Tumor weight (x ± s) (breast cancer 4T1 cells [8]): 0.82 ± 0.18 g
- Tumor inhibition rate (breast cancer 4T1 cells [8]): 71%
- pH [1, 12]: 0.1

Compound: O=c1[nH]cc(F)c(=O)[nH]1 [0.25% 5-fluorouracil, 5-fluorouracil]
- Tumor weight (x ± s) (breast cancer 4T1 cells [6]): 1.94 ± 0.33 g
- Tumor inhibition rate (breast cancer 4T1 cells [6]): 11%

Compound: Cl [0.4% hydrochloric acid, hydrochloric acid]
- Tumor weight (x ± s) (breast cancer 4T1 cells [8]): 1.65 ± 0.21 g
- Tumor inhibition rate (breast cancer 4T1 cells [8]): 21%
- pH [1, 12]: 0.1

Compound: O=C([O-])O.[Na+] [2% sodium bicarbonate, sodium bicarbonate]
- Tumor weight (x ± s) (breast cancer 4T1 cells [7]): 2.10 ± 0.25 g
- Tumor inhibition rate (breast cancer 4T1 cells [7]): 7%
- pH [1, 10]: 8.2

Compound: CC(=O)[O-].[Na+] [10% sodium acetate, sodium acetate]
- pH [1, 9]: 9.3
- Tumor weight (x ± s) (breast cancer 4T1 cells [2]): 1.72 ± 0.23 g
- Tumor inhibition rate (breast cancer 4T1 cells [2]): 21%

Compound: O=C([O-])[O-].[Na+].[Na+] [14% sodium carbonate, sodium carbonate]
- Tumor weight (x ± s) (breast cancer 4T1 cells [7]): 1.47 ± 0.24 g
- Tumor inhibition rate (breast cancer 4T1 cells [7]): 35%
- pH [1, 10]: 10.8

Compound: O=C([O-])O.[Na+] [15% sodium bicarbonate, sodium bicarbonate]
- Tumor weight (x ± s) (breast cancer 4T1 cells [8]): 1.29 ± 0.24 g
- Tumor inhibition rate (breast cancer 4T1 cells [8]): 38%
- pH [1, 12]: 8.1

Compound: yeast hydroxymethyl glucan
- r'3d, tumor inhibition rate (tumor volume) [4]: 4.5%
- r'14d, tumor inhibition rate (tumor volume) [4]: 7.8%

Compound: O=C([O-])O.[Na+] [10% sodium bicarbonate, sodium bicarbonate]
- Tumor weight (x ± s) (breast cancer 4T1 cells [7]): 1.58 ± 0.22 g
- Tumor inhibition rate (breast cancer 4T1 cells [7]): 30%
- pH [1, 11]: 8.1
- pH [1, 10]: 8.1
- Tumor weight (x ± s) (breast cancer 4T1 cells [3]): 1.65 ± 0.29 g
- Tumor inhibition rate (breast cancer 4T1 cells [3]): 32%
